Measured values reported in patent US12473289B2, “Heterocyclic compounds as delta-5 desaturase inhibitors and methods of use” (Amgen Inc., priority 2019, dated 2025).

Biological target: Delta-5-Desaturase (D5D) (Homo sapiens (Human), UniProt O60427)
Experiment: In vitro measurement of Delta-5-Desaturase inhibitory activity using DGLA-CoA and Arachidonyl-CoA mass spectrometric assays
Format: biochemical
Conditions: membrane preparations of D5D-overexpressing HEK293 6E cells; averaged over at least two independent runs
Outline: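 DGLA-CoA and arachidonyl-CoA were read by RapidFire SPE triple-quad MS (negative mode, MRM) after a 1 h ambient-temperature reaction quenched with acetonitrile. Enzyme was D5D-overexpressing HEK293 6E membranes at 10 μg/mL final; substrate solution held 0.01 mM DGLA plus NADH, ATP and CoA. Inhibition was referenced to DMSO and no-enzyme wells; 4PL IC50.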

Chain of Delta-5-Desaturase (D5D) (O60427 whole entry, species assumed): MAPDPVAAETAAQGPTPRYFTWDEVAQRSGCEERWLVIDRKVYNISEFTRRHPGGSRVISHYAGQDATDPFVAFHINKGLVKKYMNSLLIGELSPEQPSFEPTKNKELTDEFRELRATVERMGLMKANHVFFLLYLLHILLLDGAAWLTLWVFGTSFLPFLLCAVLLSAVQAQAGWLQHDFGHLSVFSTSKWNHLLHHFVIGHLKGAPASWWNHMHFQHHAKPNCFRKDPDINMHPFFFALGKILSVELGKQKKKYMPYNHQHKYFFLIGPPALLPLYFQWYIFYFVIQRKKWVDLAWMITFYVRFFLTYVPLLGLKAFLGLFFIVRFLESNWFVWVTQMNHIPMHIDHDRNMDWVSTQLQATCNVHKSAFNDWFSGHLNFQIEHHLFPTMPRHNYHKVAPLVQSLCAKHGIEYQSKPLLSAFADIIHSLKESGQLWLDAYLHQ

Row | IC50 | Structure (SMILES)
1 | 99.2 nM | COc1cnn2c(=O)c(-c3cnc(OCC(F)(F)F)nc3)c(C(F)(F)F)nc2c1 [Example 38, 8-Methoxy-3-[2-(2,2,2-trifluoroethoxy)pyrimidin-5-yl]-2-(trifluoromethyl)-4H-pyrimido[1,2-b]pyridazin-4-one]
2 | 85 nM | COc1ccn2c(=O)c(-c3ccn(CC(F)(F)C(F)(F)F)n3)c(C(F)(F)F)nc2c1 [Example 39-1, 8-Methoxy-3-[1-(2,2,3,3,3-pentafluoropropyl)-1H-pyrazol-3-yl]-2-(trifluoromethyl)-4H-pyrido[1,2-a]pyrimidin-4-one]
3 | 113 nM | COc1cc2nc(C(F)(F)F)c(-c3cnn(CCC(F)(F)F)c3)c(=O)n2cc1Cl [Example 39-2, 7-chloro-8-methoxy-2-(trifluoromethyl)-3-[1-(3,3,3-trifluoropropyl)-1H-pyrazol-4-yl]-4H-pyrido[1,2-a]pyrimidin-4-one]
4 | 188 nM | COc1ccn2c(=O)c(-c3cnn(CC(F)(F)C(F)(F)F)c3)c(C(F)(F)F)nc2c1Cl [Example 39-3, 9-chloro-8-methoxy-3-[1-(2,2,3,3,3-pentafluoropropyl)-1H-pyrazol-4-yl]-2-(trifluoromethyl)-4H-pyrido[1,2-a]pyrimidin-4-one]
5 | 46.4 nM | COc1ccn2c(=O)c(-c3cnn(CC(F)(F)C(F)(F)F)c3)c(C(F)(F)F)nc2c1F [Example 39-4, 9-fluoro-8-methoxy-3-[1-(2,2,3,3,3-pentafluoropropyl)-1H-pyrazol-4-yl]-2-(trifluoromethyl)-4H-pyrido[1,2-a]pyrimidin-4-one]
6 | 8.9 nM | O=c1c(-c2cnn(CC(F)(F)C(F)(F)F)c2)c(C(F)(F)F)nc2ccccn12 [Example 39-5, 3-[1-(2,2,3,3,3-pentafluoropropyl)-1H-pyrazol-4-yl]-2-(trifluoromethyl)-4H-pyrido[1,2-a]pyrimidin-4-one]
7 | 115 nM | COc1ccc2nc(C(F)(F)F)c(-c3cnn(CC(F)(F)C(F)(F)F)c3)c(=O)n2c1 [Example 39-6, 7-methoxy-3-[1-(2,2,3,3,3-pentafluoropropyl)-1H-pyrazol-4-yl]-2-(trifluoromethyl)-4H-pyrido[1,2-a]pyrimidin-4-one]
8 | 1430 nM | CC(C)(O)c1ccn2c(=O)c(-c3cnn(CC(F)(F)C(F)(F)F)c3)c(C(F)(F)F)nc2c1 [Example 39-7, 8-(2-hydroxypropan-2-yl)-3-[1-(2,2,3,3,3-pentafluoropropyl)-1H-pyrazol-4-yl]-2-(trifluoromethyl)-4H-pyrido[1,2-a]pyrimidin-4-one]
9 | 1350 nM | COc1cc(C)n2c(=O)c(-c3cnn(CC(F)(F)C(F)(F)F)c3)c(C(F)(F)F)nc2c1 [Example 39-8, 8-methoxy-6-methyl-3-[1-(2,2,3,3,3-pentafluoropropyl)-1H-pyrazol-4-yl]-2-(trifluoromethyl)-4H-pyrido[1,2-a]pyrimidin-4-one]
10 | 47.3 nM | N#Cc1ccc2nc(C(F)(F)F)c(-c3cnn(CC(F)(F)C(F)(F)F)c3)c(=O)n2c1 [Example 39-9, 4-oxo-3-[1-(2,2,3,3,3-pentafluoropropyl)-1H-pyrazol-4-yl]-2-(trifluoromethyl)-4H-pyrido[1,2-a]pyrimidine-7-carbonitrile]
11 | 6.3 nM | COc1cc2nc(C(F)(F)F)c(-c3cnn(CC(F)(F)C(F)(F)F)c3)c(=O)n2cn1 [Example 39-10, 8-methoxy-3-[1-(2,2,3,3,3-pentafluoropropyl)-1H-pyrazol-4-yl]-2-(trifluoromethyl)-4H-[1,3]diazino[1,6-a]pyrimidin-4-one]
12 | 6.9 nM | COc1cnn2c(=O)c(-c3cnn(CCC(F)(F)F)c3)c(C(F)(F)F)nc2c1 [Example 39-11, 8-methoxy-2-(trifluoromethyl)-3-[1-(3,3,3-trifluoropropyl)-1H-pyrazol-4-yl]-4H-pyrimido[1,2-b]pyridazin-4-one]
13 | 53.7 nM | COc1ccn2c(=O)c(-c3cnc(OCC(F)(F)C(F)(F)F)nc3)c(C(F)(F)F)nc2c1 [Example 39-12, 8-methoxy-3-[2-(2,2,3,3,3-pentafluoropropoxy)pyrimidin-5-yl]-2-(trifluoromethyl)-4H-pyrido[1,2-a]pyrimidin-4-one]
14 | 248 nM | COc1ccn2c(=O)c(-c3cnc(OCC(F)(F)F)nc3)c(C(F)(F)F)nc2n1 [Example 39-13, 8-methoxy-3-[2-(2,2,2-trifluoroethoxy)pyrimidin-5-yl]-2-(trifluoromethyl)-4H-[1,3]diazino[1,2-a]pyrimidin-4-one]
15 | 44400 nM | COc1ccc2nc(C(F)(F)F)c(-c3cnn(CC(F)(F)C(F)(F)F)c3)c(=O)n2n1 [Example 39-14, 7-methoxy-3-[1-(2,2,3,3,3-pentafluoropropyl)-1H-pyrazol-4-yl]-2-(trifluoromethyl)-4H-pyrimido[1,2-b]pyridazin-4-one]
16 | > 67000 nM | COc1ccc2nc(C(F)(F)F)c(-c3cnc(OCC(F)(F)F)nc3)c(=O)n2n1 [Example 39-15, 7-methoxy-3-[2-(2,2,2-trifluoroethoxy)pyrimidin-5-yl]-2-(trifluoromethyl)-4H-pyrimido[1,2-b]pyridazin-4-one]
17 | 35100 nM | COC(=O)c1ccc2nc(C(F)(F)F)c(-c3cnn(CC(F)(F)C(F)(F)F)c3)c(=O)n2c1 [Example 39-16, methyl 4-oxo-3-[1-(2,2,3,3,3-pentafluoropropyl)-1H-pyrazol-4-yl]-2-(trifluoromethyl)-4H-pyrido[1,2-a]pyrimidine-7-carboxylate]
18 | 2.4 nM | O=c1c(-c2cnn(CCC(F)(F)F)c2)c(C(F)(F)F)nc2ccc(Cl)cn12 [Example 39-17, 7-chloro-2-(trifluoromethyl)-3-[1-(3,3,3-trifluoropropyl)-1H-pyrazol-4-yl]-4H-pyrido[1,2-a]pyrimidin-4-one]
19 | > 67000 nM | O=c1c(-c2cnc(OCC(F)(F)F)nc2)c(C(F)(F)F)nc2ccc(Cl)cn12 [Example 39-18, 7-chloro-3-[2-(2,2,2-trifluoroethoxy)pyrimidin-5-yl]-2-(trifluoromethyl)-4H-pyrido[1,2-a]pyrimidin-4-one]
20 | 1.7 nM | Cc1ccc2nc(C(F)(F)F)c(-c3cnn(CC(F)(F)C(F)(F)F)c3)c(=O)n2c1 [Example 39-19, 7-methyl-3-[1-(2,2,3,3,3-pentafluoropropyl)-1H-pyrazol-4-yl]-2-(trifluoromethyl)-4H-pyrido[1,2-a]pyrimidin-4-one]
21 | > 67000 nM | O=c1c(-c2cnc(OCC(F)(F)F)nc2)c(C(F)(F)F)nc2ccc(C3CC3)cn12 [Example 39-20, 7-cyclopropyl-3-[2-(2,2,2-trifluoroethoxy)pyrimidin-5-yl]-2-(trifluoromethyl)-4H-pyrido[1,2-a]pyrimidin-4-one]
22 | 110 nM | O=c1c(-c2cnn(CC(F)(F)C(F)(F)F)c2)c(C(F)(F)F)nc2ccc(C3CC3)cn12 [Example 39-21, 7-cyclopropyl-3-[1-(2,2,3,3,3-pentafluoropropyl)-1H-pyrazol-4-yl]-2-(trifluoromethyl)-4H-pyrido[1,2-a]pyrimidin-4-one]
23 | 2950 nM | O=c1c(-c2cnn(CCC(F)(F)F)c2)c(C(F)(F)F)nc2ccc(C3CC3)cn12 [Example 39-22, 7-cyclopropyl-2-(trifluoromethyl)-3-[1-(3,3,3-trifluoropropyl)-1H-pyrazol-4-yl]-4H-pyrido[1,2-a]pyrimidin-4-one]
24 | 2.1 nM | O=c1c(-c2cnn(CC(F)(F)C(F)(F)F)c2)c(C(F)(F)F)nc2ccc(F)cn12 [Example 39-23, 7-fluoro-3-[1-(2,2,3,3,3-pentafluoropropyl)-1H-pyrazol-4-yl]-2-(trifluoromethyl)-4H-pyrido[1,2-a]pyrimidin-4-one]
